Earlier results as cited in article PMC9063988 (JACS Au, 2022).

Test system: uptake of ETP transporter 21 into HeLa Kyoto cells

In the case of `O[C@H](CS)[C@@H](O)CS` [DTE, 1,4-Dithioerythritol], the “inhibition of thiol-mediated uptake” value is listed as “fail to inhibit”.
